Source: PMC4391943, “Novel Epigallocatechin-3-Gallate (EGCG) Derivative as a New Therapeutic Strategy for Reducing Neuropathic Pain after Chronic Constriction Nerve Injury in Mice” (PLoS ONE, 2015)

Assays:
[1] = molecular target: T1, fatty acid synthase (FASN) (Mus musculus, UniProt P19096); experiment: Fatty acid synthase activity in the dorsal horn of the spinal cord of treated CCI-mice (NADPH oxidation, A340); format: in vivo; conditions: 50 mg/Kg, n = 5; for FASN activity, % of vehicle group: 14 dpi
T1 construct: The dorsal horn of the spinal cord tissue was homogenized in lysis buffer; from tissue; host or cells: dorsal horn of the spinal cord of female Balb-c mice (CCI model)
Procedure: For dose response studies, EGCG and the two synthetic EGCG derivatives compound 23 and compound 30 were administered by intra-peritoneal injection at 10, 30, 50 and 100 mg/Kg (n = 5 mice/compound/dose), 30 minutes after the CCI. To analyze the time-dependent effect EGCG and the two synthetic EGCG derivatives compound 23 and compound 30 were administered by intra-peritoneal injection at 50 mg/Kg (n = 15 mice/compound), 30 minutes after the CCI. Another set of animals were used to study the effect of 50 mg/kg of EGCG and the two synthetic EGCG derivatives compound 23 and compound 30 at 14 dpi (n = 15 mice/compound). In all cases, the administration was daily repeated during the first week. All compounds were dissolved in DMSO/saline solution (1:9; v/v), used as vehicle group.
The fatty acid synthase (FASN) activity was assayed in particle-free supernatants by recording spectrophotometrically at 37°C (Lambda Bio 20, Perkin Elmer Boston, MA, USA, EUA) and measuring the decrease of A340 nm due to oxidation of NADPH as previously described. Briefly, mice (n = 5 per group) were sacrificed with sodium pentobarbital (90 mg/kg; i.p.) at 14 and 56 dpi. Spinal cord segments distal to T12 vertebra were quickly removed and snap frozen. The dorsal horn of the spinal cord tissue was homogenized in lysis buffer (250mM sucrose, 20 mM HEPES pH 7.6, 2 mM MgCl2, 1 mM DTT, 1 mM EDTA, 50 mM NaF, 2 mM phenylmethylsulfonyl fluoride (PMSF), 1 μg/μL aprotinin, 1 μg/μL leupeptin, 2 mM sodium orthovanadate). Homogenized samples were centrifuged at 3,500 x g for 10 minutes, and then supernatant was collected and centrifuged at 100,000 x g for 30 minutes to obtain supernatants particle-free. The protein concentrations were determined using the Dc protein assay kit. A 90 μg amount of protein was used for the reaction. A pre-incubation during 15 minutes at 37°C in 0.2 M of potassium phosphate buffer, pH = 7.0 was kept for temperature equilibration. Then, samples were added to the reaction mixture (200 mM potassium phosphate buffer, pH 7.0; 1 mM EDTA; 1 mM dithiothreitol, 30 μM Acetyl-CoA and 0.24 mM NADPH) and then were monitored at 340 nm for 3 minutes to measure background NADPH oxidation. After the addition of 50 μM of malonyl-CoA, the reaction was assayed for 10 minutes to determine FASN-dependent oxidation of NADPH. Rates were corrected with the background rate of NADPH oxidation.

FASN = experiment: Western blot of FASN protein levels in the dorsal horn of the spinal cord; format: in vivo, mice; conditions: 50 mg/Kg, 14 and 56 dpi
Procedure: (§1) Mice (n = 5 per group) were sacrificed with sodium pentobarbital (90 mg/kg; i.p.) at 14 and 56 dpi and spinal cord segments distal to T12 vertebra were quickly removed and frozen. For total protein extraction, the dorsal horn of the spinal cord was homogenized in modified RIPA buffer (50 mM Tris–HCl pH 7.5, 1% Triton X-100, 0.5% sodium deoxycholate, 0.2% SDS, 100 mM NaCl, 1 mM EDTA, 2 mM PMSF, 1 μg/μL aprotinin, 1 μg/μL leupeptin and 2 mM sodium orthovanadate).
(§2) Western blotting was performed as previously described. The following primary antibodies were used: anti-FASN (1:1000, BD Bioscience, San Jose, CA); anti-TNF-α, anti-IL-1β, anti-IL-6 and anti-NFκB (all 1:500, Santa Cruz Biotechnology, Santa Cruz, CA); anti-phosphoNMDAR2B (Tyr1472) (1:2000, Affinity Bioreagents, Golden, CO) and anti-NMDAR2B (1:1000, Chemicon, Temecula, CA). Loading control was performed by reprobing the membranes with anti-actin (1:10,000; MP Biochemicals, Aurora, OH), anti-NeuN (1:1,000; Chemicon) or anti-N-cadherin (1:1000, BD Bioscience). Membranes were incubated with the corresponding horseradish peroxidase-conjugated antibody (1:2,000; Promega, Madison, WI). Immunoreactive bands were visualized using the Western Blotting Luminol Reagent and quantified by a computer-assisted densitometer (Gel-Pro Analyzer, version 4, Media Cybernetics).

TNF-α, IL-1β and IL-6 = experiment: Quantitative RT-PCR of cytokine mRNA in the dorsal horn of the spinal cord; format: in vivo, mice; conditions: 50 mg/Kg
Procedure: Total RNA was isolated from dorsal horn of spinal cord segments distal to T12 vertebra of all groups (n = 5 mice per group) using the Total RNA isolation nucleospin RNA II Kit. Purified RNA (600 ng) was reverse transcribed using the StrataScript First Strand cDNA Synthesis System. The cDNA synthesis was performed at 42°C for 60 minutes according to the manufacturer’s instructions. The cDNA was then analyzed by quantitative RT-PCR using the following TaqMan Gene Expression Assays (Applied Biosystems, Foster City, CA): 18S, HS99999901_s1; TNF-α, Mm00443258_m1; IL-1β, Mm00434228_m1; IL-6, Mm00446190_m1. The RT-PCR was performed as previously described. Analysis and quantification was obtained with the comparative quantification analysis program of the Mx-Pro Q-PCR Analysis software version 3.0 (Strategene).

NMDAR2B [2] = experiment: Western blot of phospho-NMDAR2B and total NMDAR2B in the dorsal horn of the spinal cord; format: in vivo, mice; conditions: 50 mg/Kg, 56 dpi
Procedure: as §1, §2

NMDAR2B [3] = experiment: Western blot of NMDAR2B in the synaptic plasma membrane fraction of the dorsal horn; format: in vivo, mice; conditions: 50 mg/Kg, 56 dpi
Procedure: Subcellular fractionation was obtained by differential centrifugation as described elsewhere. Briefly, tissue was homogenized in lysis buffer (10 mM Tris-HCl pH 7.5, 1 mM EDTA, 1 mM Na3VO4, 0.25 M sucrose, 2 mM PMSF, 1 μg/μL aprotinin, 1 μg/μL leupeptin, 2 mM sodium orthovanadate). The homogenate was centrifuged at 2,000 × g for 10 min at 4°C to separate the nuclei fraction (P1). The P1 was resuspended in lysis buffer. The resulting supernatant was centrifuged at 10,000×g for 15 min at 4°C to obtain a crude membrane fraction (P2). The P2 was resuspended and incubated in the lysis buffer containing 0.5% Triton X-100 for 15 min, and then centrifuged at 25,000 × g for 20 min to obtain the synaptosomal membrane fraction (P3). Finally, the P3 was resuspended in lysis buffer and centrifuged on a discontinuous sucrose gradient (0.8 M, 1 M and 1.2 M) at 150,000×g for 2 h. Synaptic plasma membrane (SPM) was collected from the 1:1.2 M interface and resuspended in 50 mM HEPES, 2 mM EDTA, 1 mM PMSF, 10 μg/ml aprotinin, 1 μg/ml leupeptin and 2 mM sodium orthovanadate.
as §2

T1 sequence (P19096 whole entry): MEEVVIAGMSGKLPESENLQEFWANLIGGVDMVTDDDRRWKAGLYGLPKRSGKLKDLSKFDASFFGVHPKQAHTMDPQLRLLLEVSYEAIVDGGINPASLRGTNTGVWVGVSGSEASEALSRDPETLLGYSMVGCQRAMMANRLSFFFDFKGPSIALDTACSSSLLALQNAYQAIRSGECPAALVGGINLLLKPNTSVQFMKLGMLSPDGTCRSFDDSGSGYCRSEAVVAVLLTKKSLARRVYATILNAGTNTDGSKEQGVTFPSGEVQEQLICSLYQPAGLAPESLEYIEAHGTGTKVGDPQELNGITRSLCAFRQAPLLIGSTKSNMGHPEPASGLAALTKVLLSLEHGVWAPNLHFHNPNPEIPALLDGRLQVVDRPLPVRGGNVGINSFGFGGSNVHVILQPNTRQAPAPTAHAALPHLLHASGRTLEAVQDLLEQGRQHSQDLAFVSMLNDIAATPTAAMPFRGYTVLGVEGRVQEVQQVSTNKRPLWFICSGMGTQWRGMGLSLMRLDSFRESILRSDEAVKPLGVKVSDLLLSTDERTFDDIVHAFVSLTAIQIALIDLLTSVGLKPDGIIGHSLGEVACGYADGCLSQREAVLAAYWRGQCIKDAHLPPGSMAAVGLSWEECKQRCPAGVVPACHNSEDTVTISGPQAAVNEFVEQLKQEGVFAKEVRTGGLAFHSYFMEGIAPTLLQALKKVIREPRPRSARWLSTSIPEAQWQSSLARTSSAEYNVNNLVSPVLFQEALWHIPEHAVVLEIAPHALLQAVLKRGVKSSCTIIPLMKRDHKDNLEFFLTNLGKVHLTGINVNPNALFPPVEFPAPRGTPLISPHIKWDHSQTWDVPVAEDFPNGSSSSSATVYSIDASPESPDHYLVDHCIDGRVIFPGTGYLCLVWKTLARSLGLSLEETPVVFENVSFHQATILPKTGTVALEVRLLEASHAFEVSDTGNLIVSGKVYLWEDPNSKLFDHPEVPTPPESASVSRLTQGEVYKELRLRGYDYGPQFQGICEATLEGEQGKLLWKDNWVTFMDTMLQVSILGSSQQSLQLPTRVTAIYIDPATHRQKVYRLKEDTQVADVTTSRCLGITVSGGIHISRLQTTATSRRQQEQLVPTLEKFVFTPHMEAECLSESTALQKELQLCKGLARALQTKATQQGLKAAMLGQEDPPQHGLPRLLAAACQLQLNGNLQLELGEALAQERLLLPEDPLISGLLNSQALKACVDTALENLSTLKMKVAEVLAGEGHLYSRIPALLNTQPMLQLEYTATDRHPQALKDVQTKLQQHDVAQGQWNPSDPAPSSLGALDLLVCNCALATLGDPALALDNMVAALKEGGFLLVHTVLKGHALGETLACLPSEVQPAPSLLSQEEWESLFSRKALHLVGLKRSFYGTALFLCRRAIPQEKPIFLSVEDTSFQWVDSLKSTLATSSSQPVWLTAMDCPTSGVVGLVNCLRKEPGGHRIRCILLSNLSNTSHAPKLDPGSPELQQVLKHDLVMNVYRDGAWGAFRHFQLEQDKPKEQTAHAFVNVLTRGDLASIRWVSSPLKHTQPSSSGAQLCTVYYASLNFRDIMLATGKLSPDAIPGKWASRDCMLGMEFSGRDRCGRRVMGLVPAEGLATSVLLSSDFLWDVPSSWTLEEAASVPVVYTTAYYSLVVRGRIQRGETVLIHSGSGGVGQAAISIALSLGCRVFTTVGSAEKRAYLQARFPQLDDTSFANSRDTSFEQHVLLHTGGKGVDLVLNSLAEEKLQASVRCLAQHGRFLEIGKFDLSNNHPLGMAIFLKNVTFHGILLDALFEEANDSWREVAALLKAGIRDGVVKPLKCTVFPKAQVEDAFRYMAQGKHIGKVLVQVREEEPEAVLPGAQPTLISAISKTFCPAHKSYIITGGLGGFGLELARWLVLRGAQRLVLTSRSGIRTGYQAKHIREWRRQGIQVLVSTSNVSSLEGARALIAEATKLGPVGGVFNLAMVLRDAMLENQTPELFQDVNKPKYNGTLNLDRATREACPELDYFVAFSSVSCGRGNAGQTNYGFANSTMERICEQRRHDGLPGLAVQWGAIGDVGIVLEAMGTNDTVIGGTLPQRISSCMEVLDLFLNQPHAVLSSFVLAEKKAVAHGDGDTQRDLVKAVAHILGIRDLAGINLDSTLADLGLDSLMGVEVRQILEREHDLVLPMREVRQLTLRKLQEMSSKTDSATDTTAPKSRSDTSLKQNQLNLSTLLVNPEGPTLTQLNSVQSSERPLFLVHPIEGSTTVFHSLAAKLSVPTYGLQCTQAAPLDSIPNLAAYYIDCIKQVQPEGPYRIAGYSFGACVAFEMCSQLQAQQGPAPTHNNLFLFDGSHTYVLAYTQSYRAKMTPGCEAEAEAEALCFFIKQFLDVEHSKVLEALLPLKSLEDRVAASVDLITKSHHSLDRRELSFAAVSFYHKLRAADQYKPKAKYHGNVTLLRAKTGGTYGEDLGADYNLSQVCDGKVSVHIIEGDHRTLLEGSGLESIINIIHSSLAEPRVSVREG

Compound | FASN activity, % of vehicle group [1] | reduction of FASN activity ([1]; 56 dpi) | effect on FASN protein levels (FASN) | decrease in mRNA levels of TNF-α, IL-1β and IL-6 compared to vehicle (TNF-α, IL-1β and IL-6; 14 dpi) | decrease in mRNA levels of TNF-α, IL-1β and IL-6 compared to vehicle (TNF-α, IL-1β and IL-6; 56 dpi) | mRNA levels of IL-6 compared to vehicle (TNF-α, IL-1β and IL-6; 56 dpi) | phospho-levels of NMDAR2B compared to vehicle group (NMDAR2B [2]) | protein levels of NMDAR2B in the synaptic plasma membrane (SPM) (NMDAR2B [3])
O=C(Oc1ccc(-c2ccc(OC(=O)c3cc(O)c(O)c(O)c3)cc2)cc1)c1cc(O)c(O)c(O)c1 [Compound 30, 4,4′-Bis [(3,4,5-trihydroxybenzoyl)oxy]-1,1′-biphenyl] | 61±8 % of vehicle group | 32±9 % of vehicle | no effect | ~3 fold | not observed | slight decrease | specific decrease | specific decrease
epigallocatechin-3-gallate [EGCG] | 57±8 % of vehicle group | – | no effect | ~3 fold | not observed | – | did not induce variations | did not result in changes
O=C(Oc1cccc2c(OC(=O)c3cc(O)c(O)c(O)c3)cccc12)c1cc(O)c(O)c(O)c1 [Compound 23, 1,5-Bis [(3,4,5-trihydroxybenzoyl)oxy] naphthalene] | No differences | – | no effect | no differences | – | – | did not induce variations | did not result in changes
